Experimental data published in publication PMC8374649, “IBI362 (LY3305677), a weekly-dose GLP-1 and glucagon receptor dual agonist, in Chinese adults with overweight or obesity: A randomised, placebo-controlled, multiple ascending dose phase 1b study” (EClinicalMedicine, 2021).
Where two headings read alike, the source gives them in different places.

Key:
[1] = Immunogenicity, anti-drug antibody-positive responses; assay type: in vivo, human
Method: (§1) Pharmacokinetic parameters were assessed on pre-defined visits in all participants who received IBI362. […] Standard non-compartmental pharmacokinetics methods were used to analyze IBI362 plasma concentration data using Pkanalix 2020R1 (Lixoft, Antony, France). The values for Cmax and Tmax were taken directly from the observed plasma concentration data. The terminal-phase disposition rate constant (λz) was estimated using a log-linear regression of the concentration data in the terminal disposition phase, and T1/2 was estimated as ln(2)/λz. Immunogenicity was assessed by measures of anti-drug antibody-positive responses.

[2] = tested on: mice; conditions: cited from earlier work
Excerpt: (§2) IBI362 is a long-acting synthetic peptide analogue of mammalian OXM, with a fatty-acyl moiety to extend the half-life. […] Furthermore, a first-in-human single ascending dose ...

[3] = tested on: mouse GLP-1 receptors; conditions: in vitro; cited from earlier work
Excerpt: as §2

[4] = tested on: mouse glucagon receptors; conditions: in vitro; cited from earlier work
Excerpt: as §2

[5] = tested on: human glucagon receptors; conditions: in vitro; cited from earlier work
Excerpt: as §2

[6] = tested on: Gcgr knockout (KO) mice; conditions: cited from earlier work
Excerpt: as §2

[7] = tested on: human GLP-1 receptors; conditions: in vitro; cited from earlier work
Excerpt: as §2

[8] = tested on: Glp1r KO mice; conditions: cited from earlier work
Excerpt: as §2

[9] = tested on: healthy subjects; conditions: single ascending dose; cited from earlier work
Excerpt: as §2

[10] = Pharmacokinetics, non-compartmental, plasma concentration after subcutaneous dosing; assay type: in vivo; conditions: human; for Cmax / AUC(0-t): n = 8, geometric mean (CV%); for AUC(0-t): read-out: AUC0–168h
Method: as §1
Safety analyses were done in the safety population (defined as all participants who received at least one dose of the study treatment). Pharmacokinetic analyses were done in the pharmacokinetic population (defined as all participants who received at least one dose of IBI362 and had at least one valid plasma concentration assessment). Pharmacodynamic analyses were done in the pharmacodynamic population (defined as all participants who received at least one dose of the study treatment and had baseline and at least one valid assessment). Efficacy analyses were done in the efficacy population (defined as all participants who received at least one dose of the study treatment and had at least one post-baseline assessment).

[11] = tested on: Chinese adults with overweight or obesity; experiment: Efficacy and pharmacodynamic endpoints, change from baseline to week 12; assay type: in vivo, human; conditions: for Body weight Percent CFB / BMI CFB / Body weight CFB / Diastolic blood pressure CFB / Fasting insulin CFB / Fasting plasma glucose CFB / LDL cholesterol CFB / Systolic blood pressure CFB / Total cholesterol CFB / Triglycerides CFB / Waist circumference CFB / Serum uric acid CFB: MMRM; for HbA1c CFB: ANCOVA, LOCF; for Serum uric acid CFB: post-hoc, baseline to week 12, LS mean (95% CI)
Excerpt: The secondary pharmacodynamic endpoints included changes from baseline (pre-dose on day 0) to week 12 in fasting plasma glucose and fasting insulin levels. The secondary efficacy endpoints included changes from baseline to week 12 in body weight, waist circumference, waist-to-hip ratio, BMI, blood pressure, heart rate, lipids and HbA1c levels. Post-hoc comparison of changes from baseline to week 12 in serum uric acid levels was done between participants receiving IBI362 in each cohort and those receiving placebo. We used mixed effect model for repeated measures (MMRM) for post-baseline repeated measures to analyse continuous efficacy and pharmacodynamic endpoints. The MMRM included the corresponding baseline value, treatment, visit and treatment-by-visit as fixed effects and participant as a random effect. Mean change from baseline or mean percent change from baseline were analysed using a restricted maximum likelihood (REML)-based repeated measures approach in combination with the Newton Raphson Algorithm. The fix effect of visit was fitted as a repeated effect and an unstructured covariance matrix was used. In case of non-converge, matrix like Variance Components and Compound Symmetry will be tested in a subsequent order until model-convergence is achieved. The between-subject degree of freedom was used in estimating fixed effects. No missing data imputation was conducted. Least squares mean estimates of treatment effect at week 12 as well as treatment difference versus placebo alongside with two-sided 95% confidence intervals were provided for key efficacy and pharmacodynamic endpoints. Significance test for body weight was based on least squares means using a two-sided α of 0.05. HbA1c was measured only at baseline and week 12. Least squares mean estimates for HbA1c were computed from an Analysis of Covariance (ANCOVA) model with baseline HbA1c value and treatment as covariates. Last observation carried forward (LOCF) was used for imputing missing post-baseline measure. Least squares mean estimates of treatment effect at week 12 alongside with two-sided 95% confidence intervals were provided. Post-hoc analysis of serum uric acid was performed using MMRM model described above.

[12] = 1 mg, after first sc dose, 1.0–2.0–3.0 mg regimen
[13] = 1.5 mg, after first sc dose, 1.5–3.0–4.5 mg regimen
[14] = 2 mg, after first sc dose, 2.0–4.0–6.0 mg regimen
[15] = 1.0–2.0–3.0 mg sc once weekly, baseline to week 12, n = 8, LS mean (95% CI)
[16] = 1.5–3.0–4.5 mg sc once weekly, baseline to week 12, n = 8, LS mean (95% CI)
[17] = 2.0–4.0–6.0 mg sc once weekly, baseline to week 12, n = 7, LS mean (95% CI)

In the case of CC(C)C[C@H](NC(=O)[C@H](CC(C)C)NC(=O)[C@H](Cc1c[nH]c2ccccc12)NC(=O)[C@H](CCC(=O)O)NC(=O)[C@@H](NC(=O)[C@H](Cc1ccccc1)NC(=O)[C@H](CCC(=O)O)NC(=O)[C@H](CCCCNC(=O)COCCOCCNC(=O)COCCOCCNC(=O)CC[C@H](NC(=O)CCCCCCCCCCCCCCCCCCC(=O)O)C(=O)O)NC(=O)[C@H](C)NC(=O)[C@H](CCCCN)NC(=O)[C@H](CCCCN)NC(=O)[C@H](CCC(=O)O)NC(=O)[C@H](CC(=O)O)NC(=O)[C@H](CC(C)C)NC(=O)[C@H](Cc1ccc(O)cc1)NC(=O)[C@H](CCCCN)NC(=O)[C@H](CO)NC(=O)[C@H](Cc1ccc(O)cc1)NC(=O)[C@H](CC(=O)O)NC(=O)[C@H](CO)NC(=O)[C@@H](NC(=O)[C@H](Cc1ccccc1)NC(=O)[C@@H](NC(=O)CNC(=O)[C@H](CCC(N)=O)NC(=O)C(C)(C)NC(=O)[C@@H](N)Cc1c[nH]cn1)[C@@H](C)O)[C@@H](C)O)C(C)C)C(=O)N[C@@H](CCC(=O)O)C(=O)NCC(=O)NCC(=O)N1CCC[C@H]1C(=O)N[C@@H](CO)C(=O)N[C@@H](CO)C(=O)NCC(N)=O [IBI362], the “Participants who developed anti-IBI362 antibody” value ([1]; 3.0 mg cohort) is given as “One”, the “Participants who developed anti-IBI362 antibody” value ([1]; 4.5 mg cohort) is given as “one” and the “Energy expenditure as compared with vehicle” value [2] is given as “increased energy expenditure”. The Glucose control [2] was “improved glucose control”, the “Binding to mouse GLP-1 receptors” value [3] was “potently bound” and the “Binding to mouse glucagon receptors” value [4] was “potently bound”. For the same compound, the “Binding to human glucagon receptors” value [5] was “potently bound”, the Body weight [6] was “decreased body weight” and the “Binding to human GLP-1 receptors” value [7] was “potently bound”. For the same compound, the Body weight [8] was “decreased body weight”, the “Safety, glycaemic improvement and weight loss” value [9] was “demonstrated the safety, glycaemic improvement and weight loss” and the Cmax [10, 12] was 82.4 ng/mL. For the same compound, the AUC(0-t) [10, 12] was 12500 ng·h/mL, the Tmax ([10]; 1 mg, after first sc dose, 1.0–2.0–3.0 mg regimen, n = 8, median (range), read-out: Tmax) was 71.9 h and the Cmax [10, 13] was 99.6 ng/mL. The AUC(0-t) [10, 13] was 15600 ng·h/mL, the Tmax ([10]; 1.5 mg, after first sc dose, 1.5–3.0–4.5 mg regimen, n = 8, median (range), read-out: Tmax) was 84.5 h and the Cmax [10, 14] was 134 ng/mL. The AUC(0-t) [10, 14] was 19200 ng·h/mL, the Tmax ([10]; 2 mg, after first sc dose, 2.0–4.0–6.0 mg regimen, n = 8, median (range), read-out: Tmax) was 71.9 h and the Tmax ([10]; first sc doses, all cohorts, read-out: median Tmax) was 72 h. The “Body weight Percent CFB” value ([11]; 1.0–2.0–3.0 mg sc once weekly (3.0 mg cohort), baseline to week 12, n = 8, LS mean (95% CI)) was −4.81%, the “HbA1c CFB” value [11, 15] was −0.38% and the “BMI CFB” value [11, 15] was −1.44 kg/m². The “Body weight CFB” value [11, 15] was -3.80 kg, the “Diastolic blood pressure CFB” value [11, 15] was −8.48 mm Hg and the “Fasting insulin CFB” value [11, 15] was −3.58 µU/mL. For the same compound, the “Fasting plasma glucose CFB” value [11, 15] was -0.30 mmol/L, the “LDL cholesterol CFB” value [11, 15] was -0.11 mmol/L and the “Systolic blood pressure CFB” value [11, 15] was −8.26 mm Hg. The “Total cholesterol CFB” value [11, 15] was -0.74 mmol/L, the “Triglycerides CFB” value [11, 15] was -0.44 mmol/L and the “Waist circumference CFB” value [11, 15] was −3.25 cm. The “Body weight Percent CFB” value ([11]; 1.5–3.0–4.5 mg sc once weekly (4.5 mg cohort), baseline to week 12, n = 8, LS mean (95% CI)) was −6.40%, the “HbA1c CFB” value [11, 16] was −0.24% and the “BMI CFB” value [11, 16] was −2.00 kg/m². For the same compound, the “Body weight CFB” value [11, 16] was -5.77 kg, the “Diastolic blood pressure CFB” value [11, 16] was −5.76 mm Hg and the “Fasting insulin CFB” value [11, 16] was −6.14 µU/mL. For the same compound, the “Fasting plasma glucose CFB” value [11, 16] was -0.11 mmol/L, the “LDL cholesterol CFB” value [11, 16] was -0.25 mmol/L and the “Systolic blood pressure CFB” value [11, 16] was −5.80 mm Hg. The “Total cholesterol CFB” value [11, 16] was -0.68 mmol/L, the “Triglycerides CFB” value [11, 16] was -0.55 mmol/L and the “Waist circumference CFB” value [11, 16] was −4.57 cm. The “Body weight Percent CFB” value ([11]; 2.0–4.0–6.0 mg sc once weekly (6.0 mg cohort), baseline to week 12, n = 7, LS mean (95% CI)) was −6.05%, the “HbA1c CFB” value [11, 17] was −0.23% and the “BMI CFB” value [11, 17] was −1.88 kg/m². For the same compound, the “Body weight CFB” value [11, 17] was -5.12 kg, the “Diastolic blood pressure CFB” value [11, 17] was −2.73 mm Hg and the “Fasting insulin CFB” value [11, 17] was −0.42 µU/mL. For the same compound, the “Fasting plasma glucose CFB” value [11, 17] was -0.13 mmol/L, the “LDL cholesterol CFB” value [11, 17] was -0.34 mmol/L and the “Systolic blood pressure CFB” value [11, 17] was −5.59 mm Hg. The “Total cholesterol CFB” value [11, 17] was -0.81 mmol/L, the “Triglycerides CFB” value [11, 17] was -0.74 mmol/L and the “Waist circumference CFB” value [11, 17] was −5.00 cm. The “Serum ALT and AST levels” value ([11]; all three dose cohorts (Fig. S6)) was “decreased from baseline”, the “Serum uric acid CFB” value ([11]; 3.0 mg cohort (1.0-2.0-3.0 mg)) was -43.67 µmol/L and the “Serum uric acid CFB” value ([11]; 4.5 mg cohort (1.5-3.0-4.5 mg)) was -83.47 µmol/L. The “Serum uric acid CFB” value ([11]; 6.0 mg cohort (2.0-4.0-6.0 mg)) was -87.48 µmol/L, the “Participants with coincident decrease in body weight, LDL cholesterol, triglycerides, blood pressure and serum uric acid” value ([11]; week 12, all IBI362 cohorts, 10 participants, data not shown) was 41.7% and the “Participants achieving ≥5% weight loss from baseline” value ([11]; week 12, all IBI362 cohorts, thirteen participants) was 54.2%.
